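Grown in 96-well plates, cells were treated for 48 hours with each compound at five concentrations. Insufficient inhibition: endpoint recorded as highest concentration tested. GI50 marks 50% less growth. TGI denotes the concentration required for complete inhibition of growth.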
Tests used:
Test in all cases: NCI-60 cell line screen, 48 h; in the data active means GI50 below about 0.43 µM; inactive means the rest
LOX IMVI melanoma = tested on: LOX IMVI melanoma
SK-MEL-2 melanoma = tested on: SK-MEL-2 melanoma
NCI-H522 lung = tested on: NCI-H522 lung
TK-10 renal = tested on: TK-10 renal
HCT-15 colon = tested on: HCT-15 colon
HOP-62 NSCLC = tested on: HOP-62 NSCLC
SN12C renal = tested on: SN12C renal
RPMI-8226 leukemia = tested on: RPMI-8226 leukemia
M14 melanoma = tested on: M14 melanoma
UACC-257 melanoma = tested on: UACC-257 melanoma
OVCAR-8 ovarian = tested on: OVCAR-8 ovarian
HCT-116 colon = tested on: HCT-116 colon
UO-31 renal = tested on: UO-31 renal
ACHN renal = tested on: ACHN renal
MOLT-4 leukemia = tested on: MOLT-4 leukemia
786-0 renal = tested on: 786-0 renal
A549 NSCLC = tested on: A549 NSCLC
SK-MEL-28 melanoma = tested on: SK-MEL-28 melanoma
MDA-MB-231 breast = tested on: MDA-MB-231 breast
IGROV1 ovarian = tested on: IGROV1 ovarian
MCF7 breast = tested on: MCF7 breast
SW-620 colon = tested on: SW-620 colon
SF-268 CNS = tested on: SF-268 CNS
MDA-MB-435 = tested on: MDA-MB-435
DU-145 prostate = tested on: DU-145 prostate
HS 578T breast = tested on: HS 578T breast
RXF 393 renal = tested on: RXF 393 renal
NCI-H460 lung = tested on: NCI-H460 lung
OVCAR-4 ovarian = tested on: OVCAR-4 ovarian
SNB-75 CNS = tested on: SNB-75 CNS
HT29 colon = tested on: HT29 colon
HL-60(TB) leukemia = tested on: HL-60(TB) leukemia
MALME-3M melanoma = tested on: MALME-3M melanoma
SNB-19 CNS = tested on: SNB-19 CNS
OVCAR-3 ovarian = tested on: OVCAR-3 ovarian
SF-539 CNS = tested on: SF-539 CNS
UACC-62 melanoma = tested on: UACC-62 melanoma
SF-295 CNS = tested on: SF-295 CNS
SK-MEL-5 melanoma = tested on: SK-MEL-5 melanoma
NCI-H23 lung = tested on: NCI-H23 lung
SR leukemia = tested on: SR leukemia
CAKI-1 renal = tested on: CAKI-1 renal
CCRF-CEM leukemia = tested on: CCRF-CEM leukemia
KM12 colon = tested on: KM12 colon
NCI/ADR-RES ovarian = tested on: NCI/ADR-RES ovarian
HOP-92 NSCLC = tested on: HOP-92 NSCLC
T-47D breast = tested on: T-47D breast
SK-OV-3 ovarian = tested on: SK-OV-3 ovarian
OVCAR-5 ovarian = tested on: OVCAR-5 ovarian
NCI-H226 lung = tested on: NCI-H226 lung
COLO 205 colon = tested on: COLO 205 colon
EKVX NSCLC = tested on: EKVX NSCLC
HCC-2998 colon = tested on: HCC-2998 colon
U251 CNS = tested on: U251 CNS
BT-549 breast = tested on: BT-549 breast

NC(=O)c1ccc(I)c(N)c1
inactive: GI50 (LOX IMVI melanoma) > 100 µM | GI50 (SK-MEL-2 melanoma) > 100 µM | GI50 (NCI-H522 lung) > 100 µM | GI50 (TK-10 renal) > 100 µM | GI50 (HCT-15 colon) > 100 µM | GI50 (HOP-62 NSCLC) > 100 µM | GI50 (SN12C renal) > 100 µM | GI50 (RPMI-8226 leukemia) > 100 µM | GI50 (M14 melanoma) > 100 µM | GI50 (UACC-257 melanoma) > 100 µM | GI50 (OVCAR-8 ovarian) > 100 µM | GI50 (HCT-116 colon) > 100 µM | GI50 (UO-31 renal) > 100 µM | GI50 (ACHN renal) > 100 µM | GI50 (MOLT-4 leukemia) > 100 µM | GI50 (786-0 renal) > 100 µM | GI50 (A549 NSCLC) > 100 µM | GI50 (SK-MEL-28 melanoma) > 100 µM | GI50 (MDA-MB-231 breast) > 100 µM | GI50 (IGROV1 ovarian) > 100 µM | GI50 (MCF7 breast) > 100 µM | GI50 (SW-620 colon) > 100 µM | GI50 (SF-268 CNS) > 100 µM | GI50 (MDA-MB-435) > 100 µM | GI50 (DU-145 prostate) > 100 µM | GI50 (HS 578T breast) > 100 µM | GI50 (RXF 393 renal) > 100 µM | GI50 (NCI-H460 lung) > 100 µM | GI50 (OVCAR-4 ovarian) > 100 µM | GI50 (SNB-75 CNS) > 100 µM | GI50 (HT29 colon) > 100 µM | GI50 (HL-60(TB) leukemia) > 100 µM | GI50 (MALME-3M melanoma) > 100 µM | GI50 (SNB-19 CNS) > 100 µM | GI50 (OVCAR-3 ovarian) > 100 µM | GI50 (SF-539 CNS) > 100 µM | GI50 (UACC-62 melanoma) > 100 µM | GI50 (SF-295 CNS) > 100 µM | GI50 (SK-MEL-5 melanoma) > 100 µM | GI50 (NCI-H23 lung) > 100 µM | GI50 (SR leukemia) > 100 µM | GI50 (CAKI-1 renal) > 100 µM | GI50 (CCRF-CEM leukemia) > 100 µM | GI50 (KM12 colon) > 100 µM | GI50 (NCI/ADR-RES ovarian) > 100 µM | GI50 (HOP-92 NSCLC) > 100 µM | GI50 (T-47D breast) > 100 µM | GI50 (SK-OV-3 ovarian) > 100 µM | GI50 (OVCAR-5 ovarian) > 100 µM | GI50 (NCI-H226 lung) > 100 µM | GI50 (COLO 205 colon) > 100 µM | GI50 (EKVX NSCLC) > 100 µM | GI50 (HCC-2998 colon) > 100 µM | GI50 (U251 CNS) > 100 µM | GI50 (BT-549 breast) > 100 µM
> 100 µM: TGI (LOX IMVI melanoma) | TGI (SK-MEL-2 melanoma) | TGI (NCI-H522 lung) | TGI (TK-10 renal) | TGI (HCT-15 colon) | TGI (HOP-62 NSCLC) | TGI (SN12C renal) | TGI (RPMI-8226 leukemia) | TGI (M14 melanoma) | TGI (UACC-257 melanoma) | TGI (OVCAR-8 ovarian) | TGI (HCT-116 colon) | TGI (UO-31 renal) | TGI (ACHN renal) | TGI (MOLT-4 leukemia) | TGI (786-0 renal) | TGI (A549 NSCLC) | TGI (SK-MEL-28 melanoma) | TGI (MDA-MB-231 breast) | TGI (IGROV1 ovarian) | TGI (MCF7 breast) | TGI (SW-620 colon) | TGI (SF-268 CNS) | TGI (MDA-MB-435) | TGI (DU-145 prostate) | TGI (HS 578T breast) | TGI (RXF 393 renal) | TGI (NCI-H460 lung) | TGI (OVCAR-4 ovarian) | TGI (SNB-75 CNS) | TGI (HT29 colon) | TGI (HL-60(TB) leukemia) | TGI (MALME-3M melanoma) | TGI (SNB-19 CNS) | TGI (OVCAR-3 ovarian) | TGI (SF-539 CNS) | TGI (UACC-62 melanoma) | TGI (SF-295 CNS) | TGI (SK-MEL-5 melanoma) | TGI (NCI-H23 lung) | TGI (SR leukemia) | TGI (CAKI-1 renal) | TGI (CCRF-CEM leukemia) | TGI (KM12 colon) | TGI (NCI/ADR-RES ovarian) | TGI (HOP-92 NSCLC) | TGI (T-47D breast) | TGI (SK-OV-3 ovarian) | TGI (OVCAR-5 ovarian) | TGI (NCI-H226 lung) | TGI (COLO 205 colon) | TGI (EKVX NSCLC) | TGI (HCC-2998 colon) | TGI (U251 CNS) | TGI (BT-549 breast)

Source: PubChem BioAssay (NCI)
